Data reported in article PMC7247319, “The mitochondria-targeted peptide SS-31 binds lipid bilayers and modulates surface electrostatics as a key component of its mechanism of action” (The Journal of Biological Chemistry, 2020).
Where a SMILES comes first, the peptide text is derived from it. [ ]: non-standard residue; d: D form. Dmt = Cc1cc(O)cc(C)c1C[C@H](N)C(=O)O

Columns and labels:
[1] = system: LUVs containing 20 mol % TOCL or POPG; test: Zeta potential measurements of LUVs with increasing peptide; conditions: LUVs 100 μM total lipid, n = 3
Method: Figure 3. SS-31 binding and surface electrostatics. A, binding isotherms. Peptide was titrated with LUVs of the indicated composition (20% TOCL, [SS-31] = 7.5 μM and 20% POPG, [SS-31] = 3.8 μM) at 30-nmol total lipid increments in the presence of different concentrations of added KCl. Values shown are means ± S.D. (error bars) (n = 3), and lines show data fits based on Equation S3. […] B and C, effect of SS-31 binding on surface charge. Measurements of ζ (B) and ANS fluorescence (C) are shown as a function of [SS-31]/[lipid]^eff for membranes containing 20% TOCL and 20% POPG as indicated. Values shown are means ± S.D. (error bars) (n = 3).
To continue this analysis, we determined the relationship between SS-31 binding and surface electrostatics by two complementary approaches. We first performed zeta potential (ζ) measurements of LUVs containing 20 mol % TOCL or POPG with increasing [SS-31] (Fig. 3B). […] As an independent technique, we measured the effect of SS-31 on surface electrostatics using 1-anilinonaphthalene-8-sulfonic acid (ANS), a fluorescent reporter whose binding to anionic bilayers increases as the magnitude of the ψs is reduced, measured as an increase in probe emission intensity ([42]) (Fig. 3C and Fig. S9D). […]

[2] = system: LUVs composed of POPC alone or with 20% TOCL, MLCL, or POPG; test: Synchrotron SAXS and 31P solid-state NMR of model membranes; conditions: highest peptide concentration, [P]/[L]^eff = 1:5; 2 mM total lipid
Source text: Amphipathic molecules such as antimicrobial peptides can induce large structural changes in membranes, including micellization, pore formation, and induction of inverted topologies ([45]). We therefore addressed whether SS-31 induced structural polymorphism within model bilayers using a range of approaches (Fig. 4). […] Similarly, based on ^31P solid-state NMR (ssNMR) measurements, these model membranes yielded line shapes consistent with lamellar bilayers ([47]), and we observed no effect of SS-31 on bilayer structure (Fig. 4B, supporting Results F, and Fig. S10B). […] Thus, these membranes are expected to exist stably in the liquid crystalline lamellar mesophase over all peptide concentrations.
Figure 4. Effects of SS-31 on structural properties of model membranes. […] LUVs composed of 20% anionic lipid (TOCL, MLCL, or POPG) in POPC background were measured in the absence or presence of peptide ([SS-31]/[lipid]^eff = 1:5) as indicated. […] Data and fits in gray show SS-31 fractional saturation (calculated from Fig. 2A, [lipid]^eff = 25 μM). […]
NMR data were recorded at 162 MHz on a Bruker AVANCE III 400-MHz WB spectrometer equipped with an HXY probe tuned for ^1H and ^31P. […] Model membranes (LUVs) were measured at 25 °C (total of 10,240 scans/sample) with a total lipid concentration of 2 mM lipid in the presence of different concentrations of SS-31 (0, 1:500, 1:50, and 1:5 [P]/[L]^eff). […]

SMILES: Cc1cc(O)cc(C)c1C[C@H](NC(=O)[C@H](N)CCCNC(=N)N)C(=O)N[C@@H](CCCCN)C(=O)N[C@@H](Cc1ccccc1)C(N)=O [SS-31, D-Arg-2′6′-dimethyl-Tyr-Lys-Phe-NH2] (H-[dR][Dmt]KF-NH2)
- zeta potential (ζ) at saturation with increasing peptide [1]: ~−30 mV
- effect on bilayer structure / lamellarity (SAXS, 31P ssNMR) [2]: did not cause major topological alterations
